Results from patent US6235791A, “Use of amines to produce drugs for preventing tumor cell proliferation” (Sanofi-Synthelabo, priority 1996, dated 2001).

Assays:
MCF7 RPMI p6-7 = assay: proliferation of mammary epithelial cells, IC50 after 6 days; type: cell-based; conditions: Homo sapiens, MCF7, 144 h, 6 days of treatment
Description: (§1) Another study was also performed in order to determine the effect of SR 31747 on the in vitro and in vivo growth of mammary and prostate epithelial tumour cells.
(§2) The study consisted in evaluating the potential antitumour activity of SR 31747 on the growth of a variety of cancerous breast epithelial lines. The study is carried out in vitro on cell cultures, as well as in vivo after inoculation of tumoral mammary lines in "nude" athymic mice.
(§3) The cell lines which were used are as follows:
(§4) The hormone-sensitive MCF-7 line originates from a pleural effusion of a breast adenocarcinoma. The antioestrogen-resistant MCF-7LY2 cells were obtained from the MCF-7LCC1 and MCF-7LCC2 lines were developed in nude mice, after inoculation of the MCF-7 cells. The two lines are oestrogen-independent. The MCF-7CC2 cells are also antioestrogen-resistant. The MCF-7AZTD5 line is derived from the MCF-7 line after stable transfection with the H-ras oncogene. The MCF-7AZTD5 cells are antioestrogen-resistant in vitro. All of these lines are maintained on DMEM/F12 (1/1, vol/vol) containing 10% decomplemented foetal calf serum and 16 ng/ml of human insulin. The MCF-7LCC2 line is cultured in the permanent presence of 10^-7 M hydroxytamoxifen. The MDA-MB231 tumoral mammary epithelial cells are oestrogen- and antioestrogen-insensitive. They are cultured in L15 medium supplemented with 10% FCS, 1% essential amino acids and 10 μg/ml of human insulin.
(§5) All the lines are maintained at 37° C. in a humid air/CO2 (95%/5%) atmosphere, except for the MDA-MB231 cells which are cultured in the absence of CO2. THe cell lines are checked regularly free of mycoplasms.
(§6) Table B--Effect of SR 31747 on the proliferation of mammary epithelial cells. Determination of the IC50 after 6 days of treatment--medium changed every 48 hours

LY2 p22-23 (MCF-7LY2) = assay: as above; type: cell-based; conditions: Homo sapiens, Epithelial cell, 144 h; LY2 p22-23, 10% FCS, 6 days of treatment
Description: as §1, §2, §3, §4, §5, §6

MDA MB231 p131 = assay: as above; type: cell-based; conditions: 6 days of treatment
Description: as §1, §2, §3, §4, §5, §6

LCC1 p23-24 (MCF-7LCC1) = assay: as above; type: cell-based; conditions: Homo sapiens, Epithelial cell, 144 h, 6 days of treatment
Description: as §1, §2, §3, §4, §5, §6

MCF7 AZTD5 = assay: as above; type: cell-based; conditions: Homo sapiens, MCF7, 144 h, 6 days of treatment
Description: as §1, §2, §3, §4, §5, §6

MCF7 AZ = assay: as above; type: cell-based; conditions: Homo sapiens, 144 h, 10% FCS, 6 days of treatment
Description: as §1, §2, §3, §4, §5, §6

MCF7 22HTB RPMI p + 4 = assay: as above; type: cell-based; conditions: Homo sapiens, 144 h; MCF7 22HTB RPMI p + 4, 0.1% FCS, 6 days of treatment
Description: as §1, §2, §3, §4, §5, §6

293 = assay: MTT colorimetric proliferation test, 5 days; type: cell-based; conditions: Homo sapiens, read-out: percentage of cell proliferation relative to the untreated control taken as 100%
Description: (§7) Among other cells used, the following lines were routinely cultured in RPMI medium supplemented with 10% foetal calf serum (FCS):
human kidney carcinoma 294
(§8) The antitumour activity is measured according to the colorimetry method using MTT, 3-(4,5-dimethylthiazole-2,5-diphenyltetrazolium) bromide as described by Mosmann T., Journ. of Im. Methods; 1983, 65, 55.
(§9) This colorimetric assay makes it possible to measure quantitatively the antitumour activity of a solution containing a compound used according to the invention.
(§10) According to the procedure used, the suspended cells (such as the myeloma cells) are inoculated at 2×10^3 cells/ml in 1 ml wells in defined medium. The adherent cells (such as the MCF-7 cells) are inoculated at 5×10^4 cells/ml in 1 ml wells in RPMI medium+0.5% FCS overnight. The next day, the cell carpet is washed twice and replaced by the defined medium.
(§11) The defined medium corresponds to: RPMI+10 μg/ml insulin+10 μg/ml human transferrin.
(§12) In order to carry out this test, cells are maintained in the presence of the solution containing a compound used according to the invention for 5 days, and the MTT is then added to the culture medium.
(§13) The 5 day period which was selected corresponds to the optimum time for the activity. After culturing for 5 days, the proliferation of the cells is measured by the test described above. The optical density at 570 nm is measured. A blue coloration develops in the wells where the cells are still alive. The intensity of the coloration is proportional to the quantity of live cells.

[1] = system: human lung carcinoma A549; assay: MTT colorimetric proliferation test, 5 days; type: cell-based; conditions: 120 h, read-out: percentage of cell proliferation relative to the untreated control taken as 100%
Description: as §7
human lung carcinoma A549
as §8, §9, §10, §11, §12, §13

[2] = system: mammary tumoral epithelial cells; assay: proliferation of tumoral breast epithelial lines, summary statements; type: cell-based
Description: as §1, §2, §3
as §4, with “They are cultured in L15 medium supplemented with 10% FCS, 1% essential amino acids and 10 μg/ml of human insulin.” left out

LCC2 p26-27 (MCF-7LCC2) = assay: proliferation of mammary epithelial cells, IC50 after 6 days; type: cell-based, human; conditions: 6 days of treatment
Description: as §1, §2, §3, §4, §5, §6

SN 47 p4 normal cells = assay: as above; type: cell-based; conditions: Epithelial cell, 144 h, 6 days of treatment
Description: as §1, §2, §6

MCF7 + E2 10-9M = assay: proliferation of mammary epithelial cells, IC50 after 6 days, with oestradiol; type: cell-based, human; conditions: for IC50: MCF7 + E2 10^-9M, 0.5% FCS, 6 days of treatment
Description: as §1, §2, §3, §4, §5, §6

IC50 (MCF7 RPMI p6-7; MCF7 RPMI p6-7, 0% FCS): 3 nM
IC50 (MCF7 RPMI p6-7; MCF7 RPMI p6-7, 0.1% FCS): 7 nM
IC50 (LY2 p22-23 (MCF-7LY2)): > 100 nM
IC50 (LCC1 p23-24 (MCF-7LCC1); LCC1 p23-24, 0.1% FCS): 2 nM
IC50 (LCC1 p23-24 (MCF-7LCC1); LCC1 p23-24, 5% FCS): 1000 nM
IC50 (MCF7 AZTD5; MCF7 AZTD5, 0.1% FCS): 0.2 nM
IC50 (MCF7 AZTD5; MCF7 AZTD5, 10% FCS): 600 nM
IC50 (MCF7 AZ): > 1000 nM
IC50 (MCF7 22HTB RPMI p + 4): 2 nM
IC50 (LCC2 p26-27 (MCF-7LCC2); Homo sapiens, LCC2, 144 h, LCC2 p26-27, 0.1 DCC): 2 nM
IC50 (LCC2 p26-27 (MCF-7LCC2); Homo sapiens, LCC2, 144 h, LCC2 p26-27, 5% DCC): 400 nM
IC50 (LCC2 p26-27 (MCF-7LCC2); LCC2 p26-27, 5% DCC): 300 nM
IC50 (MCF7 + E2 10-9M; Homo sapiens, MCF7, 144 h): 400 nM
IC50 (MCF7 + E2 10-9M): 300 nM
Structure (SMILES): CCN(C/C=C\c1ccc(C2CCCCC2)c(Cl)c1)C1CCCCC1 [SR 31747, cis-N-Cyclohexyl-N-ethyl [3-(3-chloro-4-cyclo-hexylphenyl)allyl]amine]
IC50 (MDA MB231 p131; Homo sapiens, MDA-MB-231, 144 h, MDA MB231 p131, 0.1% FCS): 2 nM
IC50 (MDA MB231 p131; Homo sapiens, MDA-MB-231, 144 h, MDA MB231 p131, 10% FCS): 800 nM
IC50 (MDA MB231 p131; MDA MB231 p131, 10% FCS): 400 nM
activity at 10 pM (293; HEK293, 120 h, 293, 10 pM): 100%
activity at 0.0001 µM (293; HEK293, 120 h, 293, 100 pM): 84%
activity at 0.001 µM (293; HEK293, 120 h, 293, 1 nM): 80%
activity at 0.01 µM (293; HEK293, 120 h, 293, 10 nM): 43%
activity at 0.1 µM (293; HEK293, 120 h, 293, 100 nM): 36%
activity at 1 µM (293; HEK293, 120 h, 293, 1 μM): 10%
activity at 10 µM (293; HEK293, 120 h, 293, 10 μM): 7%
activity at 10 pM ([1]; A549, 10 pM): 100%
activity at 0.0001 µM ([1]; A549, 100 pM): 88%
activity at 0.001 µM ([1]; A549, 1 nM): 56%
activity at 0.01 µM ([1]; A549, 10 nM): 50%
activity at 0.1 µM ([1]; A549, 100 nM): 38%
activity at 1 µM ([1]; A549, 1 μM): 14%
activity at 10 µM ([1]; A549, 10 μM): 10%
inhibition of cell proliferation at high concentration (cytotoxic effects) ([2]; 10^-6 M and occasionally 10^-7 M SR 31747): virtually total inhibitions of the cell proliferation
action on the proliferation of tumor epithelial lines ([2]; reduced concentrations of saline (serum)): exerts an inhibitory action on the proliferation of all the tumor epithelial lines tested
IC50 (SN 47 p4 normal cells; 0.5% FCS): 400 nM
IC50 (SN 47 p4 normal cells; 10% FCS): > 10000 nM
reversal of the stimulatory action of oestradiol (MCF7 + E2 10-9M; hormone-sensitive MCF-7 line): incapable of reversing the stimulatory action of oestradiol
